This note sets out measurements from patent US20210196714A1, “COMPOSITIONS AND METHODS FOR TREATING DISORDERS CHARACTERIZED WITH ABERRANT RAS/MAPK SIGNALING” (Duke University, priority 2018, published 2021).

The structures appear in SMILES notation. “Also recorded” adds a separate entry of the source.

One assay relates to rap1-CRISPR embryos. Put plainly: Jaw defect (MK-CH distance) in rap1-CRISPR embryos. It is filed as in vivo, zebrafish. Particulars: rap1 F0 CRISPR mutant, 100 nM, 5 dpf. The procedure: (§1) FIG. 4: Compound 8 ameliorates the CE and jaw defects caused by loss of rap/and kdm6a. (a) gRNA targeting both zebrafish rap1a and rap1b were injected into embryos at the 1-cell stage with Cas9 protein. Larvae were incubated with compound 8 (100 nM) at the 8-cell stage and scored for micrognathia. 5 dpf larvae were stained with Alcian blue to assess the layout of the jaw cartilage. In comparison to control embryos (top), rap1-CRISPR embryos have smaller jaws. […] (b) Quantitative measurement of the distance between MK and CH cartilages. (c) Larvae were scored for CE (n>30 for each concentration). (d) 5 dpf embryos were stained with Alcian blue to assess the layout of jaw cartilage. […] (e) Quantitative measurement of the distance between MK and CH cartilages. *p<0.05; ***p<0.001. […]
(§2) For convergence and extension (CE) phenotyping, embryos were scored as described (see, Leitch, C. C. et al. Nat Genet 40, 443-8 (2008)) at the 8-10 somite stage, and images were captured using an AZ100 microscope and NIS Elements software (Nikon). […] The distance between Meckel's (MK) and ceratohyal (CH) cartilages was measured on ventral bright field images with Image J (NIH). […] Fluorescence signal on embryo heads was imaged with the Nikon AZ100 microscope and DS-Qi1MC digital camera using […] Z-stacks to generate extended depth of focus images. Cell numbers were quantified using the ImageJ ICTN plugin (NIH). […]

For assay [1], the system named is zebrafish kmt2d morphants. Put plainly: Rescue of convergent-extension (CE) phenotype in kmt2d morphants. Format: in vivo. The conditions noted are these: 100 nM; for rescue of CE defects, repeated experiments: repeated four times by two investigators; for proportion of embryos showing CE defects vs vehicle (DMSO): primary screen, kmt2d-MO, 8-10 somite stage. As to the method:
FIG. 1: In vivo screen using BRAF/MEK/ERK inhibitors. (a) Flow chart of the experimental design. We started the screening with 29 compounds (27 active BRAF/MEK/ERK inhibitors, and 2 negative controls). 26 compounds passed the solubility test and 24 of those passed the toxicity test. For the primary screen, 24 compounds were assessed for their ability to rescue the convergent-extension (CE) phenotype of zebrafish kmt2d morphants, followed by rescue tests of additional phenotypes (jaw and brain) within the kmt2d morphant, or CE of additional genetic KS models. (b) Toxicity results. Twenty embryos at the 8-cell stage were incubated in egg water containing 100 nM, 1 μM, and 10 μM of the 26 compounds. After 24 hours, larvae were scored for toxicity. Black bar: death; grey bar: abnormal morphology; white bar: nontoxic. (c) Embryos were injected with kmt2d-MO at the 2-4 cell stage and soaked in egg water containing 100 nM of each compound at the 8-cell stage. After 24 hours, larvae were scored for CE. […] The efficacy of each compound was determined by a chi-square test in which Class I and Class II were considered together. Note that the compounds were tested in two groups (compounds 1-19 and compounds 20-29), each with its own set of controls.
This library was screened against validated transient suppression reagent for kmt2d. Experiments injected kmt2d-morpholino (MO) into one- to two-cell-stage embryos and soaked them in egg water containing 100 nM of each compound approximately one hour after injection (eight-cell stage).
Morpholinos (MO) were obtained from Gene Tools (Gene Tools, LLC, Philomath, Oreg., USA) and have been described previously (see, Bogershausen, N. et al. J Clin Invest 125, 3585-99 (2015)); kmt2d-MO: 5′-[…]-3′(SEQ ID NO: 1) (5 ng); kdm6a-MO: 5′-[…] (SEQ ID NO: 2) (10 ng). kmt2d-MO and kdm6a-MO was injected into wild type (WT) Ekkwill (EK) zebrafish embryos obtained from natural matings at the 1-4 cell stage. CRISPR target sequences (rap1a: 5′-[…]-3′ (SEQ ID NO: 3) [120 pg], rap1b: 5′-[…]-3′ (SEQ ID NO: 4) [120 pg] (see, Bogershausen, N. et al. J Clin Invest 125, 3585-99 (2015)), and kmt2d: 5′-[…] (SEQ ID NO: 5) [50 pg]) were identified by crispr.mit.edu and cloned into pT7-gRNA (Addgene, Cambridge, USA) following the protocol described in http://www.addgene.org/crispr/Chen/. Guide (g)RNAs were synthesized using the T7 MEGAshortscript kit (ThermoFisher Scientific). […]
For convergence and extension (CE) phenotyping, embryos were scored as described (see, Leitch, C. C. et al. Nat Genet 40, 443-8 (2008)) at the 8-10 somite stage, and images were captured using an AZ100 microscope and NIS Elements software (Nikon). […] The distance between Meckel's (MK) and ceratohyal (CH) cartilages was measured on ventral bright field images with Image J (NIH). […]

The next assay has as its system kdm6a-MO embryos. Briefly: Jaw defect (MK-CH distance) in kdm6a-MO embryos. It is filed as in vivo, zebrafish. The conditions noted are these: kdm6a morphant, 5 dpf. The procedure:
as §1, §2

`CC(C)c1nc(-c2cccc(NS(=O)(=O)c3c(F)cccc3F)c2F)c(-c2ccnc(N)n2)s1` [Compound 8, desmethyl-Dabrafenib]: the “jaw length / MK-CH distance” value with rap1-CRISPR embryos was “can be ameliorated; also recorded: restored significantly the jaw length of morphants and mutants to nearly wild type levels”. In assay [1], the “rescue of CE defects, repeated experiments” value is “rescue CE defects; also recorded: consistent and significant rescue”; the “proportion of embryos showing CE defects vs vehicle (DMSO)” value was “decreased the proportion of embryos showing CE defects”. For the same compound, in the assay on kdm6a-MO embryos, the “jaw length / MK-CH distance” value was “can be ameliorated; also recorded: restored significantly the jaw length of morphants and mutants to nearly wild type levels”.

For `CC[C@@H](CO)Nc1ncc(C)c(-c2c[nH]c(C(=O)N[C@H](CO)c3cccc(Cl)c3)c2)n1` [Compound 2, N-((S)-1-(3-chlorophenyl)-2-hydroxyethyl)-4-(2-(((S)-1-hydroxybutan-2-yl)amino)-5-methylpyrimidin-4-yl)-1H-pyrrole-2-carboxamide], the “jaw length / MK-CH distance” value in the assay with rap1-CRISPR embryos was “can be ameliorated; also recorded: restored significantly the jaw length of morphants and mutants to nearly wild type levels”. In addition, in assay [1], the “rescue of CE defects, repeated experiments” value was “rescue CE defects; also recorded: consistent and significant rescue”; the “proportion of embryos showing CE defects vs vehicle (DMSO)” value is listed as “decreased the proportion of embryos showing CE defects”. Moreover, in the assay with kdm6a-MO embryos, the “jaw length / MK-CH distance” value was “restored significantly the jaw length of morphants and mutants to nearly wild type levels”.
